According to patent US11331290B2, “Niclosamide for the treatment of cancer metastasis” (Max-Delbrück-Centrum für Molekulare Medizin in der …, priority 2011, dated 2022):

Molecular target: T1, CTNNB1/TCF complex (Homo sapiens, UniProt P35222, DEL45-45)
T1 construct: endogenous in cells; host or cells: HCT116 nuclear extract
T1 sequence (P35222 1-781): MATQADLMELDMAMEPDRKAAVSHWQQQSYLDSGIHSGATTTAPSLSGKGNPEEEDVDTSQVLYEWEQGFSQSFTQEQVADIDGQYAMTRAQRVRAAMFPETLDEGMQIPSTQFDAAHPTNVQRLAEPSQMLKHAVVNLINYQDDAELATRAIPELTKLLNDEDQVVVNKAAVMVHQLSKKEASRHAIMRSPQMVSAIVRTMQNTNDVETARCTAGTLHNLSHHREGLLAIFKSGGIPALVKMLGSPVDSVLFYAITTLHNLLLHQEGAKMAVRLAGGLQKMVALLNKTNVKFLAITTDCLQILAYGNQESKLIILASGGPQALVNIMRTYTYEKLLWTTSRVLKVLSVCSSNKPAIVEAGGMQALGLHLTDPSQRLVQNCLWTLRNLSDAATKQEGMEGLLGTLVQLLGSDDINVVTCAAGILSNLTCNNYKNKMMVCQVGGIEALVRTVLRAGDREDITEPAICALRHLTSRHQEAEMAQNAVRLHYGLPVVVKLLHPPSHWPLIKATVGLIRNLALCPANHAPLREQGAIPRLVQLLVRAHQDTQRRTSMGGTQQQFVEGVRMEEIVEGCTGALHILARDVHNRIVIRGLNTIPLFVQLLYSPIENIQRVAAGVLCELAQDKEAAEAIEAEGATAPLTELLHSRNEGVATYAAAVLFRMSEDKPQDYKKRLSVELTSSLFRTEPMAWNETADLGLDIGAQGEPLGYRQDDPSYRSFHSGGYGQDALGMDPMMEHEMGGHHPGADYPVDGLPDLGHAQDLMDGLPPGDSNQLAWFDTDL
T1 sequence (P35222 with tags, fused parts or gaps DEL45-45): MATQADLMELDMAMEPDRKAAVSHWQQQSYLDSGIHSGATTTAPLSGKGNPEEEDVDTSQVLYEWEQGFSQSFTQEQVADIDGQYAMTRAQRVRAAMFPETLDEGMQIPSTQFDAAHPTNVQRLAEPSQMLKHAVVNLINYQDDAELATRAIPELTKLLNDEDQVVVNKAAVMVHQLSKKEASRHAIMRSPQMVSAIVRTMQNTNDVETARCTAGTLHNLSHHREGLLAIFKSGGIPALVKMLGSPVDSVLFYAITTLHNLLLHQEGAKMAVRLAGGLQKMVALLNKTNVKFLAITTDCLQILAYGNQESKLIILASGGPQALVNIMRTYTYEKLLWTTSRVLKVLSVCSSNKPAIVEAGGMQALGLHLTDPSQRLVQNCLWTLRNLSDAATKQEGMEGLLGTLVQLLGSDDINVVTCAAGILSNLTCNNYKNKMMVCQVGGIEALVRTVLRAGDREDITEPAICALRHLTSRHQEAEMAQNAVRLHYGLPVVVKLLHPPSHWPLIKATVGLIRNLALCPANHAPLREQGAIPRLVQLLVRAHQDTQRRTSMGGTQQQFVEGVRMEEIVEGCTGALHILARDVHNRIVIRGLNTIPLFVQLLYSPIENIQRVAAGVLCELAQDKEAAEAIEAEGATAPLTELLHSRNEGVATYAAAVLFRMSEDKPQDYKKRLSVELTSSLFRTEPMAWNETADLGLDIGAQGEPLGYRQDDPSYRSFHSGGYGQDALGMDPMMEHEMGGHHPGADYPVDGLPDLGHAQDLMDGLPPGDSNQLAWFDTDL
Assay: Electrophoretic mobility shift assay (EMSA), TCF-binding site of the S100A4 promoter
Format: cell-based
Experimental: Electrophoretic mobility shift assay (EMSA) was performed as described earlier (4). 5×10^6 HCT116 cells were plated into a 10 cm culture dish and were given 15 hour to attach to the bottom of the dish. Cells were treated with 0.1, 0.3, 0.6 or 1 μM niclosamide or the respective amount of DMSO for 24 hours. For each condition 5 μg nuclear extracted protein was incubated 30 minutes at room temperature with 0.05% w/v poly dI⋅dC, 0.5 mM Tris, 0.05 mM EDTA, 2.5% v/v glycerol, 0.2% v/v NP-40, 5 mM MgCl2 and double-stranded biotinylated oligonucleotides (sense 5′-[…]-3′, antisense 3′-[…] T-5′) encompassing the TCF-binding site of the S100A4 promoter. For supershift 1.25 μg monoclonal CTNNB1 antibody (BD Biosciences) was added. […]
For WNT pathway analysis the following cells were applied: HCT116 cells (heterozygous for gain-of-function-mutated CTNNB1; wt/mut), HAB-68mut cells (deletion mutant of HCT116, expressing only gain-of-function-mutated CTNNB1: −/mut) and HAB-92 wt cells (deletion mutant of HCT116, expressing only wild-type CTNNB1: wt/−). […] Reporter gene expression was determined by luciferase activity measurement. […] S100A4 expression was analyzed by qRT-PCR and immunoblot. […] Cells were treated with 1 μM niclosamide for 24 hours and cell migration was determined by Boyden chamber assay. […] Differences were analyzed by Student's t test (n.s.; not statistically significant). […]

Question: Which results are given for `O=C(Nc1ccc([N+](=O)[O-])cc1Cl)c1cc(Cl)ccc1O` [niclosamide, 2′,5-dichloro-4′-nitrosalicylanilide]?
Answer: supershift with monoclonal anti-CTNNB1 (nuclear extracts from 1 μM niclosamide-treated HCT116 cells): No supershift could be detected; CTNNB1/TCF/oligo complex (nuclear extracts of HCT116 cells, increasing concentrations (0.1, 0.3, 0.6 or 1 μM)): interrupted the CTNNB1/TCF/oligo complex in a concentration-dependent manner
